In ChEMBL document CHEMBL1201862, “PubChem BioAssay data set” (2004):
Active and inactive are the calls of the source.

Legend:
[1] = tested on: HEK293; assay: inhibition of NOD1-driven NF-kB reporter – cell-based, luminescence, uHTS, primary screen (AID 1578); format: functional; settings: Homo sapiens
[2] = tested on: HEK293; assay: cells; format: functional, cell-based; settings: Homo sapiens
[3] = tested on: HEK293; assay: NOD2 signaling inhibitors in MDP-stimulated cells, cell-based, uHTS, luminescence (AID 2001); format: functional; settings: Homo sapiens
[4] = luciferase reporter signal suppression in cells – H4 neuroglioma cells, luminescence, dose response (AID 1990); format: functional, cell-based
[5] = tested on: Streptococcus sp. 'group A'; assay: Streptococcus pyogenes SK(-)GAS viability under kanamycin – luminescence, BacTiterGlo, confirmation, counter-screen for streptokinase expression inhibitor project, dose response (AID 1900); format: functional, organism-based
[6] = Luminescence Cell-Based Dose Response HTS to Identify Inhibitors of 5'UTR Stem-Loop Driven Prion Protein mRNA Translation in H4 Neuroglioblastoma Cells. [Related pubchem assays: 1827 (Project Summary), 1813 (Primary HTS)]; format: functional
[7] = alpha-synuclein stem-loop luciferase translation blockers – H4 neuroglioma cells, luminescence, confirmation (AID 1988); format: functional, cell-based
[8] = tested on: Streptococcus; assay: GAS UMAA2166 growth inhibition – luminescence, BacTiterGlo, counter-screen for streptokinase expression inhibitor project, dose response (AID 1915); format: functional, organism-based;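 further: potency for reduction of bacterial viability or growth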
[9] = target: Delta-type opioid receptor (Homo sapiens, UniProt P41143); assay: Counterscreen for agonists of heterodimerization of the mu 1 (OPRM1) and delta 1 (OPRD1) opioid receptors: Luminescence-based cell-based high throughput dose response assay to identify agonists of OPRD1 homodimerization. [Related pubchem assays (depositor defined):AID504326, AID504355, AID504692, AID504904, AID504905]; format: functional
[10] = target: Mu-type opioid receptor (Homo sapiens, UniProt P35372); assay: Counterscreen for agonists of heterodimerization of the mu 1 (OPRM1) and delta 1 (OPRD1) opioid receptors: Luminescence-based cell-based high throughput dose response assay to identify agonists of OPRM1 homodimerization.; format: functional;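 further: U2OS cells expressing OPRM1 and beta-arrestin as split beta-galactosidase partners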
[11] = target: 5-hydroxytryptamine receptor 5A (Homo sapiens, UniProt P47898); assay: Counterscreen for agonists of OPRM1-OPRD1 heterodimerization: luminescence-based cell-based high throughput dose response assay to identify agonists of 5-hydroxytryptamine (serotonin) 5A receptor (HTR5A). [Related pubchem assays (depositor defined):AID504326, AID504355, AID504692, AID504904, AID504905]; format: functional
[12] = tested on: INS1; assay: INS-1E survival protection against cytokine death – cell-based, luminescence, retest, dose response (AID 449756); format: functional; settings: Rattus norvegicus;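 further: cell death triggered by IL-1 beta plus TNF-alpha plus IFN-gamma mixture; protective hits raise ATP signal compared with cytokine alone wells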
[13] = target: Glucose-6-phosphate 1-dehydrogenase (Homo sapiens, UniProt P11413); assay: inhibition of Homo sapiens G6PD, dose series – biochemical, fluorescence, selectivity assay for P. falciparum G6PD inhibitor project, dose response (AID 504792); format: functional
[14] = target: DNA dC->dU-editing enzyme APOBEC-3G (Homo sapiens, UniProt Q9HC16); assay: Dose Response confirmation of small molecule APOBEC3G DNA Deaminase Inhibitors via a fluorescence-based single-stranded DNA deaminase assay. [Related pubchem assays (depositor defined):AID493012, AID493028]; format: functional
[15] = target: FAD-linked sulfhydryl oxidase ALR (Homo sapiens, UniProt P55789); assay: ALR-catalysed DTT oxidation blockers – biochemical, H2O2 detection, luminescence, cherry-pick, dose response (AID 493248)
[16] = target: Genome polyprotein (dengue virus type 2, UniProt P29990); assay: flavivirus cap methylation enzyme inhibition – biochemical, confirmation dose response, primary screen (AID 588689); format: functional
[17] = target: T1, Coagulation factor XII (Homo sapiens, UniProt P00748); format: functional;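 further: activated factor XIIa alpha cleaving a fluorogenic AMC peptide substrate; inhibitor potency from loss of enzyme activity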
T1 sequence (P00748 whole entry): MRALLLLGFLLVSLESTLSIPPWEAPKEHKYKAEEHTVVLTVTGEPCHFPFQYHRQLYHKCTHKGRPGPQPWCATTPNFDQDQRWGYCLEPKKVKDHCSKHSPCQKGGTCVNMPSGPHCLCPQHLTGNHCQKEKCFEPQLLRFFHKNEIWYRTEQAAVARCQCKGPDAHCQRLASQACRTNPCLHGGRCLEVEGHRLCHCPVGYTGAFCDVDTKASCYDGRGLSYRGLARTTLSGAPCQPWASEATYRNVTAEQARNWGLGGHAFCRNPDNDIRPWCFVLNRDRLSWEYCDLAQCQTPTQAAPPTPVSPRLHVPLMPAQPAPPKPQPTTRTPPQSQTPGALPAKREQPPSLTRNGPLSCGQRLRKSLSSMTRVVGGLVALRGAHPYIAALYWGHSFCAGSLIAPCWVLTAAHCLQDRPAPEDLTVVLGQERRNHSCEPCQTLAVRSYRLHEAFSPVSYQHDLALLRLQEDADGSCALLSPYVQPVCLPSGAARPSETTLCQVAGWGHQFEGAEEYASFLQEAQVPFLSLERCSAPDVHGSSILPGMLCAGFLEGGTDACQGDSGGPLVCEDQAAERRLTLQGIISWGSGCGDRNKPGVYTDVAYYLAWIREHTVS

[18] = target: Large T antigen (Simian virus 40, UniProt P03070); format: functional, Betapolyomavirus macacae;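 further: Confirmatory-stage PubChem screen for compounds that inhibit SV40 T antigen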
[19] = target: Glyceraldehyde-3-phosphate dehydrogenase (Homo sapiens, UniProt P04406)
[20] = target: T2, Alkaline phosphatase, tissue-nonspecific isozyme (Homo sapiens, UniProt P05186); assay: potency against alkaline phosphatase TNAP – biochemical, luminescent, dose response, SAR follow-up (AID 1056)
T2 sequence (P05186 whole entry): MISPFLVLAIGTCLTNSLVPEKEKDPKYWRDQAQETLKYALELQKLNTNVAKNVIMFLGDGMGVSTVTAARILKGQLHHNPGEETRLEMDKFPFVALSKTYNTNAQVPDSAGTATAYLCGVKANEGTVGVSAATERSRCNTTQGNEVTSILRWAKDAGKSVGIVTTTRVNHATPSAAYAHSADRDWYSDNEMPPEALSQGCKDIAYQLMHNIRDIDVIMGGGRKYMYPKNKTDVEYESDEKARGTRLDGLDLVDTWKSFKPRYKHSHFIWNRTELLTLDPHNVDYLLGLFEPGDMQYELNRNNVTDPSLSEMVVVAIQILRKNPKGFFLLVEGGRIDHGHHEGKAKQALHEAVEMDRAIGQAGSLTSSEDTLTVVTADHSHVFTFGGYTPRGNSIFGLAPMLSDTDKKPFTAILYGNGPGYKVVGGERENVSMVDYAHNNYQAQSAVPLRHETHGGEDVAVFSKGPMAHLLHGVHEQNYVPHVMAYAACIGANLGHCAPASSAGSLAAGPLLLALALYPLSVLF

[21] = NIH-3T3 fibroblast cytotoxicity, dose response, cytotoxicity control, cell-based, fluorescence, Alamar Blue, secondary assay (AID 2327); format: functional;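 further: NIH-3T3 mouse fibroblasts cultured with fluconazole at 8 µg/mL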
[22] = fluconazole-exposed Candida albicans growth modulators – fluorescence, retest, confirmation (AID 2467); format: functional, cell-based
[23] = target: T3, Serine/threonine-protein phosphatase (Candida dubliniensis (strain CD36 / CBS 7987 / NCPF 3949 / NRRLY-17841) (Yeast), UniProt B9W6M3); assay: blockers of CaCl2-induced CDRE-lacZ signaling – S. cerevisiae, luminescence, secondary, dose response (AID 2388); format: functional, cell-based;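 further: yeast reporter cells carrying a calcineurin-responsive lacZ construct stimulated with calcium chloride; luminescent beta-galactosidase reporter signal in whole cells rather than isolated phosphatase activity; potency for inhibition where a drop in reporter signal means calcineurin blockade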
T3 sequence (B9W6M3 whole entry): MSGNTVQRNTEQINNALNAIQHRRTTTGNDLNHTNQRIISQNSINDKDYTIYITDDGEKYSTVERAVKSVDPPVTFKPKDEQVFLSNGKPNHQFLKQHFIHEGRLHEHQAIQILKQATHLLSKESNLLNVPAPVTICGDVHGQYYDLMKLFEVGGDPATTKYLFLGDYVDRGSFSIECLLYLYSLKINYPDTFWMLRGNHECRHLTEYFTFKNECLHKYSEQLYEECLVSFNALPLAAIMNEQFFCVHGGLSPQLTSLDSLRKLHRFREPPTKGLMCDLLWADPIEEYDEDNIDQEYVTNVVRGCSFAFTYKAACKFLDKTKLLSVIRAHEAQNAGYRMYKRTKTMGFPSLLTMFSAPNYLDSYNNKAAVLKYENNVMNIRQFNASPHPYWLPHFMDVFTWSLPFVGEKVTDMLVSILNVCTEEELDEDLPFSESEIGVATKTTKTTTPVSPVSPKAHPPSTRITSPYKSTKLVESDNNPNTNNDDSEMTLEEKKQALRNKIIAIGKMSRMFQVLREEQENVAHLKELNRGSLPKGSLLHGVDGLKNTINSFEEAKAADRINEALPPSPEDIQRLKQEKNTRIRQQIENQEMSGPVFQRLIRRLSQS

[24] = target: T4, Bcl-2-related protein A1 (Mus musculus, UniProt Q07440); format: functional;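 further: confirmatory dose–response counterscreen on Bfl-1, used to check hits from a UBC13 polyubiquitin inhibitor campaign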
T4 sequence (Q07440 whole entry): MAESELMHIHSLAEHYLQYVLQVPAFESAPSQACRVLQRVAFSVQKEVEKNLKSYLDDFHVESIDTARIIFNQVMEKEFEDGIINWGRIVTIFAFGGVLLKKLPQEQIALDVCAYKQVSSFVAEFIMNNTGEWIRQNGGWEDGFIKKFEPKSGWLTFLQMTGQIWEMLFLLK

[25] = target: T5, Ubiquitin-conjugating enzyme E2 N (Homo sapiens, UniProt P61088); format: functional
T5 sequence (P61088 whole entry): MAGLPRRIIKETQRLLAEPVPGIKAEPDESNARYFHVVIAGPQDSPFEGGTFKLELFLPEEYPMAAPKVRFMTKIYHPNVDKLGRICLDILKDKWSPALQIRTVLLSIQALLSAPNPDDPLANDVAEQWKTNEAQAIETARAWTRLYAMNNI

[26] = target: T5, Ubiquitin-conjugating enzyme E2 N; format: functional; remark: listed apart in the source
[27] = target: Heat shock protein HSP 90-alpha (Homo sapiens, UniProt P07900); format: functional, organism-based
[28] = target: ATP-dependent molecular chaperone HSP82 (Candida albicans (strain WO-1) (Yeast), UniProt C4YTQ8); assay: steroid-induced GRE reporter decrease in yeast – S. cerevisiae, luminescence, Hsp90 inhibitor project, dose response (AID 2400); format: functional, cell-based;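 further: beta-galactosidase luminescence from glucocorticoid response element reporter as proxy for Hsp90 function; inhibitor potency where signal loss means Hsp90 inhibition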
Chain of ATP-dependent molecular chaperone HSP82 (C4YTQ8 whole entry): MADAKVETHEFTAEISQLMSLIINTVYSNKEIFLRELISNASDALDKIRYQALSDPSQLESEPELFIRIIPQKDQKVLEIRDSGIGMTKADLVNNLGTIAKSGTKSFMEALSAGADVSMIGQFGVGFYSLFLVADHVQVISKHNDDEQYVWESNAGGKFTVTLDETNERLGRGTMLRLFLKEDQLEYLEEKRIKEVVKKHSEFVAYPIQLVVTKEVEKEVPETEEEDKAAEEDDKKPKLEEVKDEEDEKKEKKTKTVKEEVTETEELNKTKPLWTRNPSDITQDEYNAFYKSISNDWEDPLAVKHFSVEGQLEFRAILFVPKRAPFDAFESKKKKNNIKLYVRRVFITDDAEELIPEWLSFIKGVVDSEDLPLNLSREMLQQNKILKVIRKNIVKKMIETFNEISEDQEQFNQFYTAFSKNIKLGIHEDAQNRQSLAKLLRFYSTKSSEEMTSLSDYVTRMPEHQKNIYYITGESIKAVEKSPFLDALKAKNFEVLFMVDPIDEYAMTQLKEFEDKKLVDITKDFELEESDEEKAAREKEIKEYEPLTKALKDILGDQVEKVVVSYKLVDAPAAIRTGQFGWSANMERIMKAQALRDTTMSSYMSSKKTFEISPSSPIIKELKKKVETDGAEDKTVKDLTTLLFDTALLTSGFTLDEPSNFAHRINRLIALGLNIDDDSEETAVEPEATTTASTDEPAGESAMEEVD

Chain of Mu-type opioid receptor (P35372 whole entry): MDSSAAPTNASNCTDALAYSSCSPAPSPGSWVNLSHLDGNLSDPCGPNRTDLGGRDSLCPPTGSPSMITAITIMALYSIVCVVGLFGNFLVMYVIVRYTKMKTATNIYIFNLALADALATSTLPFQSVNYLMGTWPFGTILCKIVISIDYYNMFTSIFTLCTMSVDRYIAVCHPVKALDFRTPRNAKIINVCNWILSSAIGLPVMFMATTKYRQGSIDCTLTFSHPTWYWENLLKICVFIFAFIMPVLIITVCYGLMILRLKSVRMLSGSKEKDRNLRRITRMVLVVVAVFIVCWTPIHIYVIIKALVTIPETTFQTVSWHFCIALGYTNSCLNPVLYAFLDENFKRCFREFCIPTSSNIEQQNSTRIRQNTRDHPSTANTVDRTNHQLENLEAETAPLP
Chain of 5-hydroxytryptamine receptor 5A (P47898 whole entry): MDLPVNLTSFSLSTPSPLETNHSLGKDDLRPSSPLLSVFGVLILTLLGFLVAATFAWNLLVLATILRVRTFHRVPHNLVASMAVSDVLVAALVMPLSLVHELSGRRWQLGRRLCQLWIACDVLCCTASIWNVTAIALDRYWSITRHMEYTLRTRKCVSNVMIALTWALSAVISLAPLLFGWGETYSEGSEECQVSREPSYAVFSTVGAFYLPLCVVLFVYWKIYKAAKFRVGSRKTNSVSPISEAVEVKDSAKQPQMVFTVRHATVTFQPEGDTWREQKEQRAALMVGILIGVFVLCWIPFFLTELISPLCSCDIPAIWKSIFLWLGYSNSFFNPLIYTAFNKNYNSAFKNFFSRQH
Chain of Delta-type opioid receptor (P41143 whole entry): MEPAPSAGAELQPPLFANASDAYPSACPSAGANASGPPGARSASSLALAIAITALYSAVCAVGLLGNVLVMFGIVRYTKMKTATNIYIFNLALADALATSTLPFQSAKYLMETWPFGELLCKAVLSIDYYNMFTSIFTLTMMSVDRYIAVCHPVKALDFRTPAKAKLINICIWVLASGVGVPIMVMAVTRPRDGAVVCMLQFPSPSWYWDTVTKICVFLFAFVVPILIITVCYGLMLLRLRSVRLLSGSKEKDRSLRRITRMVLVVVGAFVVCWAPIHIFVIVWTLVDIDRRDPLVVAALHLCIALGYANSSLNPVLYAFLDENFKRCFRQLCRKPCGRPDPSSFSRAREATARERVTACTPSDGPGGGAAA
Chain of Glucose-6-phosphate 1-dehydrogenase (P11413 whole entry): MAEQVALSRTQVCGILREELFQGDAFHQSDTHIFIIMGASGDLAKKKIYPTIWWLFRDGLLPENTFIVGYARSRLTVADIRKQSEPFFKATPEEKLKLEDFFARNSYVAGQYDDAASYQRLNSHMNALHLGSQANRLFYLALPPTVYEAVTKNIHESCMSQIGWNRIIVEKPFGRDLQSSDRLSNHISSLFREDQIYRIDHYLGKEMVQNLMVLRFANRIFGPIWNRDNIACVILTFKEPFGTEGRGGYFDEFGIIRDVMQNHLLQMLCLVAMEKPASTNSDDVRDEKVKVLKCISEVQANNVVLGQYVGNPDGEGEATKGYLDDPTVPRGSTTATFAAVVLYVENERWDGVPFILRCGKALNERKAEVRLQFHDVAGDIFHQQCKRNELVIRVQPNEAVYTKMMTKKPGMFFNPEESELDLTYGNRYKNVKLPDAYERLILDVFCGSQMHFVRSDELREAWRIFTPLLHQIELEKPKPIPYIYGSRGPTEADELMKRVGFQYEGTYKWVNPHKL
Chain of Genome polyprotein (P29990 2492-3391 limits assumed): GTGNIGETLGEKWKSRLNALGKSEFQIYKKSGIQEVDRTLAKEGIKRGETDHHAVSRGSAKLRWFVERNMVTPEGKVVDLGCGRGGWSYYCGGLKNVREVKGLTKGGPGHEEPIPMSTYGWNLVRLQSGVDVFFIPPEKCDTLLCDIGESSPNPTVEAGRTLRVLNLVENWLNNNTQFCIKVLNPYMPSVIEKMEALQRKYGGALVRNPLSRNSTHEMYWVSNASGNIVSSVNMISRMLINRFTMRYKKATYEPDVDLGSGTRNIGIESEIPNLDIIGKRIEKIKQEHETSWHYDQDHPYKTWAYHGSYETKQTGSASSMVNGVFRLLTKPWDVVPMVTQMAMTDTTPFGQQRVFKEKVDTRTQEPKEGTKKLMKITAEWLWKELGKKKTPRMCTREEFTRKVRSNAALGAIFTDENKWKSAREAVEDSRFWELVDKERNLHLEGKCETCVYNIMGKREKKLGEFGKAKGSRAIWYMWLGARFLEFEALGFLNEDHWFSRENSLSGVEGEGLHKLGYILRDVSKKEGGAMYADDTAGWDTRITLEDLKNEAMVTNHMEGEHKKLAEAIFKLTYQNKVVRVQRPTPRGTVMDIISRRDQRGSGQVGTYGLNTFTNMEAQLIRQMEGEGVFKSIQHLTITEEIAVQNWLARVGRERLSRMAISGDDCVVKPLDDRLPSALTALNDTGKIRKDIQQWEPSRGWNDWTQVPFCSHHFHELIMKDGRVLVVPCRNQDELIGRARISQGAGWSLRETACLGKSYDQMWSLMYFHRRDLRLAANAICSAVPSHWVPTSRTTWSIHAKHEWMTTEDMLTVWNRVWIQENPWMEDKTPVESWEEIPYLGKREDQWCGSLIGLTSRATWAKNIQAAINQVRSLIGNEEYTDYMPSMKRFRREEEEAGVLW
Chain of FAD-linked sulfhydryl oxidase ALR (P55789 whole entry): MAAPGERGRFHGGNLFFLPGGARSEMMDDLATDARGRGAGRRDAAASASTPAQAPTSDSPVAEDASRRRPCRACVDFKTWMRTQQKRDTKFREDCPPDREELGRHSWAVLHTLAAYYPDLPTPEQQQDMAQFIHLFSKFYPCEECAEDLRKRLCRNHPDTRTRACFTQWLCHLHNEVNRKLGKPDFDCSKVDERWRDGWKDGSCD
Chain of DNA dC->dU-editing enzyme APOBEC-3G (Q9HC16 whole entry): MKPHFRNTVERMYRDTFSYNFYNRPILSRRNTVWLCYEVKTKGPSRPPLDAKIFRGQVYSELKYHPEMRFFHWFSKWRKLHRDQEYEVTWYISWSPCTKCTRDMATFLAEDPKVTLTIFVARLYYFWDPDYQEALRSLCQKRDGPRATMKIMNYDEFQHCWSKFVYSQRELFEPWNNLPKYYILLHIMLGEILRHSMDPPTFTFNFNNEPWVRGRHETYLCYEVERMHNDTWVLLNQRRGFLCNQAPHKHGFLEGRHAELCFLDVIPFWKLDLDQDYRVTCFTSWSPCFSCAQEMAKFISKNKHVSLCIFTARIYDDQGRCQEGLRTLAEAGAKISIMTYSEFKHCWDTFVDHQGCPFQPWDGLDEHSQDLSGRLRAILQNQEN
Chain of Large T antigen (P03070 whole entry): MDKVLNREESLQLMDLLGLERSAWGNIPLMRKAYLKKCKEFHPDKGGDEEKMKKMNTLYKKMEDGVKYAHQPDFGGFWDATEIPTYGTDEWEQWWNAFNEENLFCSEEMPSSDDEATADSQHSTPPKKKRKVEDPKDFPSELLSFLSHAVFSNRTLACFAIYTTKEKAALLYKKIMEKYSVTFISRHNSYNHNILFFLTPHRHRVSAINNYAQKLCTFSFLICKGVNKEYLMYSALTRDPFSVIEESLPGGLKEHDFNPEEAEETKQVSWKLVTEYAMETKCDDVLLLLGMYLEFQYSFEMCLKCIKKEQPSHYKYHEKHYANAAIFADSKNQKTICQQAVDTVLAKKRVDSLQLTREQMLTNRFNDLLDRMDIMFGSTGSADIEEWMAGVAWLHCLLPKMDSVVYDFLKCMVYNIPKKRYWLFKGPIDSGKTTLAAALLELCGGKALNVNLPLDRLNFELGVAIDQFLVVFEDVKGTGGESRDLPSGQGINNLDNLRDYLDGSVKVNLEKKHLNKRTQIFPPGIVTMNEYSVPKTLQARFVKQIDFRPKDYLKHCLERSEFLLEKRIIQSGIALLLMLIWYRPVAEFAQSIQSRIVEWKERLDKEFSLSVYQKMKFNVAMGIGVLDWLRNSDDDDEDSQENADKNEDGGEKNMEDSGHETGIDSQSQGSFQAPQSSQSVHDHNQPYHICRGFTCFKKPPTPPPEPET
Chain of Glyceraldehyde-3-phosphate dehydrogenase (P04406 whole entry): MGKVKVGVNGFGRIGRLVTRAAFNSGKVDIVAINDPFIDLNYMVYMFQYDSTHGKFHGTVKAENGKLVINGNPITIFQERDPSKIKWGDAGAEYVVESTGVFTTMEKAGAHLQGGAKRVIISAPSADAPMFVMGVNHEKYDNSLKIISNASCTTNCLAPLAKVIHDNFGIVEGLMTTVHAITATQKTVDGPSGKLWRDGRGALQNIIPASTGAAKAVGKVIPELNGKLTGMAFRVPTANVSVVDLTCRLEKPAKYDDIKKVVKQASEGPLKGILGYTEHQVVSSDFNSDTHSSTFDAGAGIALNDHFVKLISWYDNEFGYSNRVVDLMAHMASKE

Question: Which EC50 [1] does the source give for `COc1ccccc1NS(=O)(=O)c1cccc(NC(=O)c2ccc3ccccc3n2)c1` here?
Answer: Its EC50 is 6.61 µM (active).

Question: And the IC50 [2]?
Answer: The IC50 was > 20 µM (inactive).

Question: And the IC50 [3]?
Answer: Its IC50 is 7.38 µM (active).

Question: Which EC50 [4] does the source give for `COc1cc(Br)cc(/C=N/NC(=O)Cc2ccc(C(F)(F)F)cc2[N+](=O)[O-])c1O` here?
Answer: The EC50 was > 120 µM (not active).

Question: And the EC50 [5]?
Answer: Its EC50 is 1.84 µM (active).

Question: And the EC50 [6]?
Answer: The EC50 was 12.6 µM (active).

Question: And the EC50 [7]?
Answer: The EC50 was 9.21 µM (active).

Question: And the EC50 [8]?
Answer: Its EC50 is 2.42 µM (active).

Question: What about the EC50 [9] of the same compound?
Answer: The EC50 was > 92.4 µM (inactive).

Question: What about the EC50 [10] of the same compound?
Answer: Its EC50 is > 92.4 µM (inactive).

Question: What about the EC50 [11] of the same compound?
Answer: The EC50 was > 92.4 µM (inactive).

Question: What about the AC50 [12] of the same compound?
Answer: Its AC50 is 4.33 µM (active).

Question: Which results are given for `CCN(CC)c1ccc(NC(=O)c2cccc(C)c2)cc1S(=O)(=O)Nc1ccccc1OC`?
Answer: IC50 [13]: > 80 µM (inactive); IC50 [14]: 51.5 µM (active)

Question: For `CCOC(=O)C1(CCOc2ccccc2)CCN(Cc2ccc(C)s2)CC1`, which EC50 [9] is on record?
Answer: The EC50 was > 92.5 µM (inactive).

Question: What about the EC50 [10] of the same compound?
Answer: The EC50 was > 92.5 µM (inactive).

Question: What about the EC50 [11] of the same compound?
Answer: Its EC50 is > 92.5 µM (inactive).

Question: For `NS(=O)(=O)c1ccc(-c2ccc(C=C3C(=O)NC(=O)NC3=O)o2)cc1`, which IC50 [13] is on record?
Answer: Its IC50 is 27.4 µM (inactive).

Question: And the AC50 [15]?
Answer: Its AC50 is 1.16 µM (active).

Question: What about the IC50 [16] of the same compound?
Answer: Its IC50 is > 100 µM (active).

Question: For `CSc1ccccc1C(=O)C1CCCN(S(=O)(=O)N(C)C)C1` (stereo not drawn), which IC50 [17] is on record?
Answer: The IC50 was > 50 µM (inactive).

Question: For `COc1ccc(C2CC(=O)C(C(c3ccc(O)cc3)C3C(=O)CC(c4ccc(OC)cc4)CC3=O)C(=O)C2)cc1` (stereo not drawn), which IC50 [18] is on record?
Answer: Its IC50 is 37.3 µM (active).

Question: And the IC50 [17]?
Answer: Its IC50 is > 50 µM (inactive).

Question: What does the source list for `CCOc1ccc(S(=O)(=O)Nc2cnc3ccccc3c2)cc1`?
Answer: IC50 [19]: > 100 µM (not active); IC50 [20]: > 100 µM (inactive)

Question: Which EC50 [21] does the source give for `Cc1ccc(OCC(=O)NNC(=S)NC(=O)C2CC2)c(C)c1` here?
Answer: The EC50 was > 150 µM (inactive).

Question: And the EC50 [22]?
Answer: The EC50 was 1.25 µM (active).

Question: And the EC50 [23]?
Answer: Its EC50 is > 180 µM (inactive).

Question: And the IC50 [24]?
Answer: The IC50 was > 20 µM (inactive).

Question: And the IC50 [25]?
Answer: The IC50 was 3.27 µM (active).

Question: What about the IC50 [26] of the same compound?
Answer: The IC50 was 1.59 µM (active).

Question: What about the AC50 [27] of the same compound?
Answer: The AC50 was 4.32 µM (active).

Question: What about the EC50 [28] of the same compound?
Answer: The EC50 was 14.3 µM (active).

Question: Which results are given for `COc1ccc(-c2oc3ncnc(N)c3c2-c2ccccc2)cc1`?
Answer: IC50 [24]: > 20 µM (inactive); IC50 [25]: 7.81 µM (active); IC50 [26]: 3.58 µM (active)

Question: Which IC50 [20] does the source give for `COc1ccc(C(C)(C)C)cc1S(=O)(=O)Nc1cccnc1` here?
Answer: The IC50 was 26.4 µM (active).

Question: For `O=C(CCCN1C(=O)c2cccc3cccc(c23)C1=O)NCc1cccnc1`, which IC50 [17] is on record?
Answer: The IC50 was > 50 µM (inactive).
